Laboratory results from ChEMBL document CHEMBL1130696, “Conformationally constrained analogues of diacylglycerol (DAG). 15. The indispensable role of the sn-1 and sn-2 carbonyls in the binding of DAG-lactones to protein kinase C (PK-C)” (Bioorg Med Chem Lett, 1998).

What follows are molecules tested against Protein kinase C alpha type (Homo sapiens, UniProt P17252) (assay: Displacement of [20-3H]-phorbol 12,13-dibutyrate (PDBU) from PKCalpha (C1b domain)).

Row | SMILES | Ki [µM]
1 | CCCCCCCCCCCCC/C=C1/CC(CO)(COCC)OC1=O (stereo not drawn) | 7.46
2 | CCCCCCCCCCCCC/C=C1/COC(CO)(COC(C)=O)C1 (stereo not drawn) | 7.58
3 | CCCCCCCCCCCCC/C=C1\CC(CO)(COCC)OC1=O (stereo not drawn) | 4.98
